Measured values taken from patent US11530229B2, “Cyano cyclobutyl compounds for CBL-B inhibition and uses thereof” (Nurix Therapeutics, Inc., priority 2019, dated 2022).
Like-named read-outs stand apart in the source and are kept apart here.

Experiments:
[1] = system: primary human total T-cells; experiment: T-cell activation, CD25 surface staining, Biological Example 2; type: cell-based; conditions: 48 hours, fold change over baseline; for fold induction at 0.3 µM: 0.3 μM inhibitor; for fold induction at 1 µM: 1 μM inhibitor; for fold induction at 3 µM: 3 μM inhibitor
Cbl-b = Cbl-b (Homo sapiens (Human), UniProt Q13191); experiment: Cbl-b displacement assay (Cbl-b inhibition assay), Biological Example 1; type: binding
Outline: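 Avitag-biotinylated human Cbl-b (residues 36–427) at 0.5 nM ("High") or 0.125 nM ("Low") pre-incubated 1 h with compound (1% DMSO) in HEPES pH 7.5/NaCl/Triton/BSA/TCEP, RT. Then 1 h with 150 nM BODIPY FL inhibitor probe (~EC40) plus 2 nM streptavidin-Tb. TR-FRET read at 520/620 nm for probe displacement.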

[2] = system: primary human total T-cells; experiment: T-cell activation, IL-2 secretion, Biological Example 2; type: cell-based; conditions: 48 hours, fold change over baseline; for fold induction at 0.3 µM: 0.3 μM inhibitor; for fold induction at 1 µM: 1 μM inhibitor; for fold induction at 3 µM: 3 μM inhibitor
[3] = anti-CD3 and anti-CD28 co-stimulation
[4] = anti-CD3 and anti-CD28 co-stimulation, read-out: CD25 staining CD3/CD28 1 μM
[5] = anti-CD3 stimulation alone, read-out: CD25 staining CD3 1 μM
[6] = 0.125 nM Cbl-b final concentration (Low), read-out: Cbl-b activity IC50 (Low)
[7] = read-out: IC50 values in the Cbl-b inhibition assay of Biological Example 1
[8] = anti-CD3 and anti-CD28 co-stimulation, read-out: IL-2 secretion CD3/CD28 1 μM
[9] = anti-CD3 stimulation alone, read-out: IL-2 secretion CD3 1 μM

Sequence of Cbl-b (Q13191 36-427): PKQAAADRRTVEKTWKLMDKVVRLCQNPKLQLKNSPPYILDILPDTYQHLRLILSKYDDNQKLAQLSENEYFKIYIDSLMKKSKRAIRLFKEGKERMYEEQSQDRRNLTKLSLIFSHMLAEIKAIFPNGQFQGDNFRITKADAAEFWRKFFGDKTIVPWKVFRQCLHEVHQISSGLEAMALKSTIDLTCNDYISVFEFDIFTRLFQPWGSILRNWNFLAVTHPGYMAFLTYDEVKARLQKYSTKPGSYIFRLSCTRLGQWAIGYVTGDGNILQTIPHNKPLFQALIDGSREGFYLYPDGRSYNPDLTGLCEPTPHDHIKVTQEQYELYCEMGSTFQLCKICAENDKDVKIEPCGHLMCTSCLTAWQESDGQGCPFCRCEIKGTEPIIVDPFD

Row | SMILES | fold induction at 0.3 µM [1, 3] | fold induction at 1 µM [1, 4] | fold induction at 1 µM [1, 5] | fold induction at 3 µM ([1]; anti-CD3 stimulation alone) | IC50 (Cbl-b; [6]) [nM] | IC50 (Cbl-b; [7]) [nM] | fold induction at 0.3 µM [2, 3] | fold induction at 1 µM [2, 8] | fold induction at 1 µM [2, 9] | fold induction at 3 µM ([2]; anti-CD3 stimulation alone) | IC50 (Cbl-b; 0.5 nM Cbl-b final concentration (High), read-out: Cbl-b activity IC50 (High)) [nM]
1 | Cn1cnnc1C[C@]1(c2cccc(N3Cc4c(cc(CN5CCO[C@H](C(F)(F)F)C5)cc4C(F)(F)F)C3=O)c2)C[C@H](C#N)C1 [Compound 16, (1S,3r)-3-((4-methyl-4H-1,2,4-triazol-3-yl)methyl)-3-(3-(1-oxo-4-(trifluoromethyl)-6-(((S)-2-(trifluoromethyl)morpholino)methyl)isoindolin-2-yl)phenyl)cyclobutane-1-carbonitrile] | 1.24 to 1.39 | 1.24 to 1.39 | 1 to 1.15 | ≤ 1 | 1 to 2 | 1 to 2 | ≤ 15 | 15 to 20 | 0.4 to 0.85 | > 0.85 | –
2 | Cc1cc(C(=O)Nc2cccc([C@]3(Cc4nncn4C)C[C@H](C#N)C3)c2)nc(C2CC2)n1 [Compound 2, N-(3-((1s,3s)-3-cyano-1-((4-methyl-4H-1,2,4-triazol-3-yl)methyl)cyclobutyl)phenyl)-2-cyclopropyl-6-methylpyrimidine-4-carboxamide] | ≤ 1.24 | ≤ 1.24 | 1 to 1.15 | 1 to 1.15 | – | 2 to 5 | ≤ 15 | ≤ 15 | < 0.4 | < 0.4 | 2 to 5
3 | CC1COCCN(Cc2cc3c(c(C(F)(F)F)c2)CN(c2cccc([C@]4(Cc5nncn5C)C[C@@H](C#N)C4)c2)C3=O)C1 (stereo partly shown) [Compound 35, (1r,3r)-3-(3-(6-((6-methyl-1,4-oxazepan-4-yl)methyl)-1-oxo-4-(trifluoromethyl)isoindolin-2-yl)phenyl)-3-((4-methyl-4H-1,2,4-triazol-3-yl)methyl)cyclobutane-1-carbonitrile] | 1.24 to 1.39 | 1.24 to 1.39 | 1 to 1.15 | 1 to 1.15 | 2 to 5 | – | 15 to 20 | 15 to 20 | 0.4 to 0.85 | 0.4 to 0.85 | –
4 | C[C@@H]1CN(Cc2cc3c(c(C(F)(F)F)c2)CN(c2cccc([C@]4(Cc5nncn5C)C[C@](C)(C#N)C4)c2)C3=O)CCO1 [Compound 10, (1S,3s)-1-methyl-3-((4-methyl-4H-1,2,4-triazol-3-yl)methyl)-3-(3-(6-(((R)-2-methylmorpholino)methyl)-1-oxo-4-(trifluoromethyl)isoindolin-2-yl)phenyl)cyclobutane-1-carbonitrile] | ≤ 1.24 | ≤ 1.24 | ≤ 1 | ≤ 1 | ≥ 20 | ≥ 20 | ≤ 15 | ≤ 15 | < 0.4 | < 0.4 | –
5 | Cn1cnnc1C[C@]1(c2cccc(N3Cc4c(cc(CN5CCC[C@H](C(F)(F)F)C5)nc4C4CC4)C3=O)c2)C[C@H](C#N)C1 [Compound 49, (1r,3r)-3-(3-(4-cyclopropyl-1-oxo-6-(((S)-3-(trifluoromethyl)piperidin-1-yl)methyl)-1,3-dihydro-2H-pyrrolo[3,4-c]pyridin-2-yl)phenyl)-3-((4-methyl-4H-1,2,4-triazol-3-yl)methyl)cyclobutane-1-carbonitrile] | > 1.39 | > 1.39 | > 1.15 | > 1.15 | < 1 | < 1 | > 20 | > 20 | > 0.85 | > 0.85 | –
6 | C[C@@H]1CN(Cc2cc(C(=O)Nc3cccc([C@]4(Cc5nncn5C)C[C@@H](C#N)C4)c3)nc(C3CC3)n2)CCC1(F)F [Compound 57, N-(3-((1r,3R)-3-cyano-1-((4-methyl-4H-1,2,4-triazol-3-yl)methyl)cyclobutyl)phenyl)-2-cyclopropyl-6-(((R)-4,4-difluoro-3-methylpiperidin-1-yl)methyl)pyrimidine-4-carboxamide] | 1.24 to 1.39 | 1.24 to 1.39 | 1 to 1.15 | ≤ 1 | < 1 | – | 15 to 20 | > 20 | 0.4 to 0.85 | > 0.85 | –
